“Also recorded” adds a separate entry of the source.
How the values were obtained:
[1] = system: SOD1-G93A TGN mice; test: Clinical assessment (gait/stride length, onset, end stage) of SOD1-G93A TGN mice treated from presymptomatic stage; type: in vivo, mouse; settings: treatment from 7 weeks; for Mortality: age at death; for Onset of Motor Deficits: age at onset
Experimental: FIG. 6. Noscapine-MK801 combination delays onset of disease and death in SOD1-G93A TGN mice. The one and two-drug treatments were started at an early (i.e., presymptomatic) stage of disease (7 weeks). […] Mice received noscapine intraperitoneally and MK-801 in drinking water.
Female SOD-1 G93A TGN mice were obtained from Jackson laboratory (strain #2726). The controls were matched litter mates. Treatment groups were three per group. Noscapine was injected intraperitoneal in the thigh 3 times/week (0.2 mg/kg i.p.) and MK801 was administered continuously in drinking water (12 mg/kg/d). Gait analysis was done by the method of Wooley et al., Muscle Nerve 2005 32(1):43-50 and Carter et al. J. Neurosci., 19(8):3248-3257, hereby incorporated by reference in their entirety.
For clinical assessment endpoints scoring was selected as follows:
GROUP CLASSIFICATION: Presymptomatic
Clinical signs: Full mobility and no observable difference in behavior from age-matched controls (Gait or stride length analysis).
GROUP CLASSIFICATION: Onset
Clinical signs: Abnormal Gait or stride length analysis and hindlimb weakness: >40% reduction in stride length vs. age-matched littermates.
GROUP CLASSIFICATION: End Stage (euthanization)
Clinical signs: noticeable and complete hind limb paralysis (which in this strain occurs more on one limb than the other) and inability to right themselves in 5 sec time window. This stage starts usually as the mice are failing the gait analysis test and enter the End stage. Therefore, Transgenic SOD1-G93A TGN mice are euthanized at the onset of noticeable and complete hindlimb paralysis and inability to right themselves in 5 sec time window.

[2] = in vivo; cited from earlier work
[3] = system: MT-mediated fast axonal transport; test: MT-mediated fast axonal transport of 2H-label neuregulin-1 and chromogranin-B synaptic vesicle cargo (CSF secretion, spinal cord retention); type: in vivo, mouse; settings: 13 weeks SOD1 G93A mice; 3 weeks treatment, 100 mg/kg/d and 200 mg/kg/d
Experimental: After 3 weeks of treatment with MTMA noscapine (100 mg/kg/d and 200 mg/kg/d) an intraperitoneal pulse dose of 30-35 ml/kg ^2H2O CSF was given and CSF as well as spinal cord lumbar region were collected from 13 weeks wild type (WT) and symptomatic SOD1 G93A mice at 24, 48 and 72 h, respectively. CSF secretion rates and neuronal kinetic of retention of ^2H-label neuregulin-1 [NeuR-1] or ^2H-label chromogranin-B [Chr-B] containing synaptic vesicles were measured as described above (FIGS. 23 and 24). […] Neuroprotective actions of agents are evaluated by comparing their ability to normalize the time course, extent or pattern of appearance of labeled secreted synaptic vesicle “cargo” molecules in the body fluid or tissue sampled
As detailed in FIG. 25 (A) transgenic SOD G93A mice (representing an animal model of ALS), are given heavy water (^2H2O), to label secreted molecules in motor neurons (n=30 mice total). […] Protein-derived amino acids were derivatized to pentafluorobenzyl derivatives, and ^2H incorporation in alanine released from neuregulin-1 were measured by GC/MS. […] Protein-derived amino acids are derivatized to pentafluorobenzyl derivatives, and ^2H incorporation from ^2H2O into derivatized-alanine is measured by GC/MS, as described in detail elsewhere [Fanara, P. et al. In vivo measurement of microtubule dynamics using stable isotope labeling with heavy water. […]

| Compound | Mortality [1] [days] | Onset of Motor Deficits [1] [days] | blood brain barrier penetration [2] | half-life in CNS tissue (brain and spinal cord) and PNS [2] | fast axonal transport of 2H-label neuregulin-1 and chromogranin-B containing synaptic vesicles [3] |
| --- | --- | --- | --- | --- | --- |
| C[C@]12N[C@H](Cc3ccccc31)c1ccccc12 [MK-801, Dizocilipine] | 112 to 119 | 105 to 112 |  |  |  |
| COc1ccc2c(c1OC)C(=O)O[C@@H]2[C@H]1c2c(cc3c(c2OC)OCO3)CCN1C [Noscapine, noscapine] | 112 to 119 | 98 to 105 | penetrates the blood brain barrier | long half-life | normalized MT-mediated fast axonal transport rates; also recorded: improves this delayed fast axonal transport |
